The values below come from patent US9321718B2 (CHROMA THERAPEUTICS LTD., priority 2010, dated 2016).

In test [1] the target is T1, human recombinant his-tagged HSP90α (Homo sapiens, UniProt P07900).
T1 construct: purchased Prospec Technogene #HSP90
As to the kind of experiment: HSP90 enzyme assay (HTRF, competition with biotinylated Geldanamycin). It counts as binding. The note with it: IC50 range; read-out: Enzyme Assay. The essentials: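 HTRF competition: compounds (5000 to 0.3 nM, 0.5% DMSO) displace 40 nM biotinylated geldanamycin from 40 nM his-tagged HSP90α. Binding was read via Eu-cryptate anti-his/streptavidin-XL FRET after 20 h at room temperature in Hepes pH 7.3 buffer. IC50 was fitted against controls.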

In test [2] the test system is TNFα release from LPS stimulated THP-1 (hCE-1 +ve) cells. In words: LPS-stimulation of THP-1 cells (TNF-α release). The format is cell-based, human. The note with it: Homo sapiens, THP-1; IC50 range; TNF-α after LPS 1 μg/ml, 6 hours; read-out: THP-1 Assay. The protocol: THP-1 cells are plated in […] at a density of 4×10^4 cells/well in V-bottomed 96 well tissue culture treated plates and incubated at 37° C. in 5% CO2 for 16 hours. 2 Hours after the addition of the inhibitor in 100 μl of tissue culture media, the cells are stimulated with LPS (E. Coli strain 005:B5, Sigma) at a final concentration of 1 μg/ml and incubated at 37° C. in 5% CO2 for 6 hours. TNF-α levels are measured from cell-free supernatants by sandwich ELISA (R&D Systems #QTA00B).

Test [3] deals with TNF-α levels in LPS-stimulated human whole blood. In words: LPS-stimulation of human whole blood (TNF-α levels). It counts as cell-based. The note with it: Homo sapiens; IC50 range; TNF-α after LPS 100 ng/ml, 6 hours. On the procedure: Whole blood is taken by venous puncture using heparinised vacutainers (Becton Dickinson) and diluted in an equal volume of RPMI1640 tissue culture media (Sigma). 100 μl is then plated in V-bottomed 96 well tissue culture treated plates. 2 Hours after the addition of the inhibitor in 100 μl of RPMI1640 media, the blood is stimulated with LPS (E. Coli strain 005:B5, Sigma) at a final concentration of 100 ng/ml and incubated at 37° C. in 5% CO2 for 6 hours. TNF-α levels are measured from cell-free supernatants by sandwich ELISA (R&D Systems #QTA00B).

Take `CC(C)c1cc(C(=O)N2CCC(NC(C)(C)C(=O)OC3CCCC3)CC2)c(O)cc1O` [Example 2, cyclopentyl N-(1-{[2,4-dihydroxy-5-(propan-2-yl)phenyl]carbonyl}piperidin-4-yl)-2-methylalaninate]: the IC50 in test [1] is below 100 nM; in test [2], 100 to 1000 nM; in test [3], 100 to 1000 nM.
For the molecule `CC(C)c1cc(C(=O)N2CCC(N[C@H](C(=O)OC3CCCC3)c3ccccc3)CC2)c(O)cc1O` [Example 4, cyclopentyl (2S)-[(1-{[2,4-dihydroxy-5-(propan-2-yl)phenyl]carbonyl}piperidin-4-yl)amino](phenyl)ethanoate], the IC50 is below 100 nM in test [1], above 1000 nM in test [2] and above 1000 nM in test [3].
Turning to `CC(C)c1cc(C(=O)N2CCC(N[C@@H](C)C(=O)OC3CCCC3)CC2)c(O)cc1O` [Example 5, cyclopentyl N-(1-{[2,4-dihydroxy-5-(propan-2-yl)phenyl]carbonyl}piperidin-4-yl)-L-alaninate], the results for the IC50 in test [1], in test [2] and in test [3] were below 100 nM, 100 to 1000 nM and 100 to 1000 nM, respectively.
For `CC(C)c1cc(C(=O)N2CCC(N[C@@H](Cc3ccccc3)C(=O)OC3CCCC3)CC2)c(O)cc1O` [Example 9, cyclopentyl N-(1-{[2,4-dihydroxy-5-(propan-2-yl)phenyl]carbonyl}piperidin-4-yl)-L-phenylalaninate], the IC50 was below 100 nM in test [1], 100 to 1000 nM in test [2] and 100 to 1000 nM in test [3].
On to `CCCC[C@H](NC1CCN(C(=O)c2cc(C(C)C)c(O)cc2O)CC1)C(=O)OC1CCCC1` [Example 10, cyclopentyl N-(1-{[2,4-dihydroxy-5-(propan-2-yl)phenyl]carbonyl}piperidin-4-yl)-L-norleucinate], for which the IC50 in test [1] was below 100 nM; in test [2] it was 100 to 1000 nM; in test [3] it was above 1000 nM.
The like results for `CC(C)c1cc(C(=O)N2CCC(N[C@@H](CC3CCCCC3)C(=O)OC3CCCC3)CC2)c(O)cc1O` [Example 13, cyclopentyl 3-cyclohexyl-N-(1-{[2,4-dihydroxy-5-(propan-2-yl)phenyl]carbonyl}piperidin-4-yl)-L-alaninate] were, in that order, below 100 nM, 100 to 1000 nM and below 100 nM.
As to `CC(C)C[C@H](NC1CCN(C(=O)c2cc(C(C)C)c(O)cc2O)C1)C(=O)OC1CCCC1` (stereo partly drawn) [Example 20, cyclopentyl N-(1-{[2,4-dihydroxy-5-(propan-2-yl)phenyl]carbonyl}pyrrolidin-3-yl)-L-leucinate], the IC50 in test [1] was below 100 nM; in test [2] it was above 1000 nM; in test [3], above 1000 nM.
As for `CC(C)C[C@H](NCC1CCN(C(=O)c2cc(C(C)C)c(O)cc2O)CC1)C(=O)OC1CCCC1` [Example 21, cyclopentyl N-[(1-{[2,4-dihydroxy-5-(propan-2-yl)phenyl]carbonyl}piperidin-4-yl)methyl]-L-leucinate], the values for the IC50 in test [1], in test [2] and in test [3] were below 100 nM, below 100 nM and 100 to 1000 nM, respectively.
On to `CC(C)c1cc(C(=O)N2CCC(CN[C@@H](C)C(=O)OC3CCCC3)CC2)c(O)cc1O` [Example 22, cyclopentyl N-[(1-{[2,4-dihydroxy-5-(propan-2-yl)phenyl]carbonyl}piperidin-4-yl)methyl]-L-alaninate], for which the IC50 in test [1], in test [2] and in test [3] was below 100 nM in each case.
Consider `CC(C)c1cc(C(=O)N2CCC(CN[C@@H](Cc3ccccc3)C(=O)OC3CCCC3)CC2)c(O)cc1O` [Example 23, cyclopentyl N-[(1-{[2,4-dihydroxy-5-(propan-2-yl)phenyl]carbonyl}piperidin-4-yl)methyl]-L-phenylalaninate], for which the IC50 in test [1] is below 100 nM; in test [2], 100 to 1000 nM; in test [3], 100 to 1000 nM.
On to `CC(C)C[C@@H](NCC1CCN(C(=O)c2cc(C(C)C)c(O)cc2O)CC1)C(=O)OC1CCCC1` [Example 28, cyclopentyl N-[(1-{[2,4-dihydroxy-5-(propan-2-yl)phenyl]carbonyl}piperidin-4-yl)methyl]-D-leucinate], for which the IC50 was below 100 nM in test [1], 100 to 1000 nM in test [2] and 100 to 1000 nM in test [3].
Turning to `CC(C)c1cc(C(=O)N2CCC(CNC(C)(C)C(=O)OC3CCCC3)CC2)c(O)cc1O` [Example 32, cyclopentyl N-[(1-{[2,4-dihydroxy-5-(propan-2-yl)phenyl]carbonyl}piperidin-4-yl)methyl]-2-methyl-L-alaninate], the IC50 in test [1] is below 100 nM; in test [2], 100 to 1000 nM; in test [3], 100 to 1000 nM.
As for `CC(C)c1cc(C(=O)N2CCC(CN[C@@H](COC(C)(C)C)C(=O)OC3CCCC3)CC2)c(O)cc1O` [Example 34, cyclopentyl O-tert-butyl-N-[(1-{[2,4-dihydroxy-5-(propan-2-yl)phenyl]carbonyl}piperidin-4-yl)methyl]-L-serinate], the figures for the IC50 in test [1], in test [2] and in test [3] were below 100 nM, 100 to 1000 nM and 100 to 1000 nM, respectively.
Turning to `CC(C)c1cc(C(=O)N2CCC(CN[C@H](C(=O)OC3CCCC3)c3ccccc3)CC2)c(O)cc1O` [Example 36, cyclopentyl (2S)-{[(1-{[2,4-dihydroxy-5-(propan-2-yl)phenyl]carbonyl}piperidin-4-yl)methyl]amino}(phenyl)ethanoate], the figures for the IC50 in test [1], in test [2] and in test [3] were below 100 nM, 100 to 1000 nM and 100 to 1000 nM, respectively.
As for `CC(C)C[C@H](NCCC1CCN(C(=O)c2cc(C(C)C)c(O)cc2O)CC1)C(=O)OC1CCCC1` [Example 38, cyclopentyl N-[2-(1-{[2,4-dihydroxy-5-(propan-2-yl)phenyl]carbonyl}piperidin-4-yl)ethyl]-L-leucinate], the IC50 in test [1] is below 100 nM; in test [2], 100 to 1000 nM; in test [3], 100 to 1000 nM.
Turning to `CC(C)c1cc(C(=O)N2CCC(CCN[C@@H](Cc3ccccc3)C(=O)OC3CCCC3)CC2)c(O)cc1O` [Example 40, cyclopentyl N-[2-(1-{[2,4-dihydroxy-5-(propan-2-yl)phenyl]carbonyl}piperidin-4-yl)ethyl]-L-phenylalaninate], the IC50 in test [1] was above 1000 nM; in test [2] it was 100 to 1000 nM; in test [3], above 1000 nM.
For the molecule `CC(C)c1cc(C(=O)N2CCC(CCNC(C)(C)C(=O)OC3CCCC3)CC2)c(O)cc1O` [Example 44, cyclopentyl N-[2-(1-{[2,4-dihydroxy-5-(propan-2-yl)phenyl]carbonyl}piperidin-4-yl)ethyl]-2-methylalaninate], the IC50 is below 100 nM in test [1], below 100 nM in test [2] and 100 to 1000 nM in test [3].
Regarding `CC(C)c1cc(C(=O)N2CCC(CCN[C@@H](COC(C)(C)C)C(=O)OC3CCCC3)CC2)c(O)cc1O` [Example 45, cyclopentyl O-tert-butyl-N-[2-(1-{[2,4-dihydroxy-5-(propan-2-yl)phenyl]carbonyl}piperidin-4-yl)ethyl]-L-serinate], the IC50 in test [1] was below 100 nM; in test [2], 100 to 1000 nM; in test [3], 100 to 1000 nM.
For the molecule `CC(C)C[C@H](NCc1ccc2c(c1)CN(C(=O)c1cc(C(C)C)c(O)cc1O)C2)C(=O)OC1CCCC1` [Example 54, cyclopentyl N-[(2-{[2,4-dihydroxy-5-(propan-2-yl)phenyl]carbonyl}-2,3-dihydro-1H-isoindol-5-yl)methyl]-L-leucinate], the IC50 was below 100 nM in test [1], 100 to 1000 nM in test [2] and 100 to 1000 nM in test [3].
Turning to `CC(C)c1cc(C(=O)N2Cc3ccc(CNC(C)(C)C(=O)OC4CCCC4)cc3C2)c(O)cc1O` [Example 55, cyclopentyl N-[(2-{[2,4-dihydroxy-5-(propan-2-yl)phenyl]carbonyl}-2,3-dihydro-1H-isoindol-5-yl)methyl]-2-methylalaninate], the IC50 in test [1] was below 100 nM; in test [2], 100 to 1000 nM; in test [3], 100 to 1000 nM.
Take `CC(C)c1cc(C(=O)N2Cc3ccc(CN[C@@H](C)C(=O)OC(C)(C)C)cc3C2)c(O)cc1O` [Example 56, tert-butyl N-[(2-{[2,4-dihydroxy-5-(propan-2-yl)phenyl]carbonyl}-2,3-dihydro-1H-isoindol-5-yl)methyl]-L-alaninate]: the IC50 in test [1] was 100 to 1000 nM; in test [2], above 1000 nM; in test [3] it was above 1000 nM.
Turning to `CC(C)c1cc(C(=O)N2Cc3ccc(CN[C@@H](C)C(=O)OC4CCCC4)cc3C2)c(O)cc1O` [Example 59, cyclopentyl N-[(2-{[2,4-dihydroxy-5-(propan-2-yl)phenyl]carbonyl}-2,3-dihydro-1H-isoindol-5-yl)methyl]-L-alaninate], the IC50 in test [1] was below 100 nM; in test [2], below 100 nM; in test [3], 100 to 1000 nM.
